Experimental data taken from US20250098679A1, “HERBICIDAL PYRIDONE DERIVATIVES” (SYNGENTA CROP PROTECTION AG, priority 2021, published 2025).

Legend:
Type in all cases: in vivo
Settings in all cases: evaluated after 13 days
Setaria faberi (SETFA) [1] = assay: Post-emergence Test, Setaria faberi (SETFA); design: key to percentage damage caused to the plant, SETFA (five-point scale): 5=81-100%, 4=61-80%, 3=41-60%, 2=21-40%, 1=0-20% damage
How it was run: (§1)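 Application was a spray of acetone/water (50:50) with 0.5% Tween 20 onto pots of test species sown in standard soil. Unless otherwise stated, the rate was 1000 g/ha. After 13 days under glasshouse conditions (24/16 °C, 65% humidity), injury was scored from 1 (0-20%) to 5 (81-100%).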

Zea mays (ZEAMX) [2] = assay: Post-emergence Test, Zea mays (ZEAMX); design: key to percentage damage caused to the plant, ZEAMX (five-point scale): 5=81-100%, 4=61-80%, 3=41-60%, 2=21-40%, 1=0-20% damage
How it was run: as §1

[3] = tested on: Echinochloa crus-galli (ECHCG); assay: Pre-emergence Test, Echinochloa crus-galli (ECHCG)
[4] = tested on: Echinochloa crus-galli (ECHCG); assay: Post-emergence Test, Echinochloa crus-galli (ECHCG); design: key to percentage damage caused to the plant, ECHCG (five-point scale): 5=81-100%, 4=61-80%, 3=41-60%, 2=21-40%, 1=0-20% damage
How it was run: as §1

[5] = tested on: Ipomoea hederacea (IPOHE); assay: Post-emergence Test, Ipomoea hederacea (IPOHE); design: key to percentage damage caused to the plant, IPOHE (five-point scale): 5=81-100%, 4=61-80%, 3=41-60%, 2=21-40%, 1=0-20% damage
How it was run: as §1

Setaria faberi (SETFA) [6] = assay: Pre-emergence Test, Setaria faberi (SETFA)
[7] = tested on: Ipomoea hederacea (IPOHE); assay: Pre-emergence Test, Ipomoea hederacea (IPOHE)
[8] = tested on: Amaranthus palmeri (AMAPA); assay: Pre-emergence Test, Amaranthus palmeri (AMAPA)
[9] = tested on: Amaranthus palmeri (AMAPA); assay: Post-emergence Test, Amaranthus palmeri (AMAPA); design: key: 5=81-100%, 4=61-80%, 3=41-60%, 2=21-40%, 1=0-20% damage
How it was run: as §1

[10] = tested on: Amaranthus retoflexus (AMARE); assay: Pre-emergence Test, Amaranthus retoflexus (AMARE)
Zea mays (ZEAMX) [11] = assay: Pre-emergence Test, Zea mays (ZEAMX)
[12] = tested on: Amaranthus retoflexus (AMARE); assay: Post-emergence Test, Amaranthus retoflexus (AMARE); design: key to percentage damage caused to the plant, AMARE (five-point scale): 5=81-100%, 4=61-80%, 3=41-60%, 2=21-40%, 1=0-20% damage
How it was run: as §1

| SMILES | percentage damage caused to the plant, SETFA (five-point scale) (Setaria faberi (SETFA) [1]; 250 g/Ha) | percentage damage caused to the plant, SETFA (five-point scale) (Setaria faberi (SETFA) [1]; 1000 g/ha) | percentage damage caused to the plant, ZEAMX (five-point scale) (Zea mays (ZEAMX) [2]; 250 g/Ha) | percentage damage caused to the plant, ZEAMX (five-point scale) (Zea mays (ZEAMX) [2]; 1000 g/ha) | Pre-emergence Test ECHCG, percentage damage caused to the plant (five-point scale) ([3]; 1000 g/ha) | percentage damage caused to the plant, ECHCG (five-point scale) ([4]; 250 g/Ha) | percentage damage caused to the plant, ECHCG (five-point scale) ([4]; 1000 g/ha) | percentage damage caused to the plant, IPOHE (five-point scale) ([5]; 250 g/Ha) | percentage damage caused to the plant, IPOHE (five-point scale) ([5]; 1000 g/ha) | Pre-emergence Test SETFA, percentage damage caused to the plant (five-point scale) (Setaria faberi (SETFA) [6]; 1000 g/ha) | Pre-emergence Test IPOHE, percentage damage caused to the plant (five-point scale) ([7]; 1000 g/ha) | Pre-emergence Test AMAPA, percentage damage caused to the plant (five-point scale) ([8]; 1000 g/ha) | percentage damage caused to the plant, AMAPA (five-point scale) ([9]; 250 g/Ha) | percentage damage caused to the plant, AMAPA (five-point scale) ([9]; 1000 g/ha) | Pre-emergence Test AMARE, percentage damage caused to the plant (five-point scale) ([10]; 1000 g/ha) | Pre-emergence Test ZEAMX, percentage damage caused to the plant (five-point scale) (Zea mays (ZEAMX) [11]; 1000 g/ha) | percentage damage caused to the plant, AMARE (five-point scale) ([12]; 250 g/Ha) | percentage damage caused to the plant, AMARE (five-point scale) ([12]; 1000 g/ha) | Pre-emergence Test ECHCG, percentage damage caused to the plant (five-point scale) ([3]; 250 g/Ha (*)) | Pre-emergence Test SETFA, percentage damage caused to the plant (five-point scale) (Setaria faberi (SETFA) [6]; 250 g/Ha (*)) | other results |
| --- | --- | --- | --- | --- | --- | --- | --- | --- | --- | --- | --- | --- | --- | --- | --- | --- | --- | --- | --- | --- | --- |
| CCOCc1ccn(Cc2cc(=O)c(C(=O)O)c(-c3ccc(Cl)c(Cl)c3)n2CC)n1 [Compound 173, 2-(3,4-dichlorophenyl)-6-[[3-(ethoxymethyl)pyrazol-1-yl]methyl]-1-ethyl-4-oxo-pyridine-3-carboxylic acid] | 1 (1=0-20%) | 4 (4=61-80%) | 0 | 1 (1=0-20%) | 4 (4=61-80%) | 2 (2=21-40%) | 4 (4=61-80%) | 1 (1=0-20%) | 2 (2=21-40%) | 4 (4=61-80%) | 3 (3=41-60%) | 0 | 0 | 1 (1=0-20%) | 0 | 0 | 0 | 1 (1=0-20%) |  |  |  |
| CCn1c(Cn2ccc(Cl)n2)cc(=O)c(C(=O)O)c1-c1ccc(F)c(Cl)c1 [Compound 28, 2-(3-chloro-4-fluoro-phenyl)-6-[(3-chloropyrazol-1-yl)methyl]-1-ethyl-4-oxo-pyridine-3-carboxylic acid] | 4 (4=61-80%) | 4 (4=61-80%) | 0 | 4 (4=61-80%) | 5 (5=81-100%) | 3 (3=41-60%) | 4 (4=61-80%) | 4 (4=61-80%) | 1 (1=0-20%) | 5 (5=81-100%) | 1 (1=0-20%) | 0 | 1 (1=0-20%) | 2 (2=21-40%) | 0 | 0 | 1 (1=0-20%) | 0 |  |  |  |
| CCn1c(Cn2ccc(Cl)n2)cc(=O)c(C(=O)O)c1-c1ccc(Cl)c(Cl)c1 [Compound 4, 6-[(3-chloropyrazol-1-yl)methyl]-2-(3,4-dichlorophenyl)-1-ethyl-4-oxo-pyridine-3-carboxylic acid] | 4 (4=61-80%) | 4 (4=61-80%) | 2 (2=21-40%) | 3 (3=41-60%) | 5 (5=81-100%) | 4 (4=61-80%) | 4 (4=61-80%) |  | 4 (4=61-80%) | 5 (5=81-100%) | 3 (3=41-60%) | 1 (1=0-20%) | 3 (3=41-60%) | 4 (4=61-80%) | 2 (2=21-40%) | 3 (3=41-60%) | 3 (3=41-60%) | 2 (2=21-40%) | 5 (5=81-100%) | 5 (5=81-100%) | Pre-emergence Test IPOHE, percentage damage caused to the plant (five-point scale) ([7]; 250 g/Ha (*)): 2 (2=21-40%); Pre-emergence Test AMAPA, percentage damage caused to the plant (five-point scale) ([8]; 250 g/Ha (*)): 0; Pre-emergence Test AMARE, percentage damage caused to the plant (five-point scale) ([10]; 250 g/Ha (*)): 0; Pre-emergence Test ZEAMX, percentage damage caused to the plant (five-point scale) (Zea mays (ZEAMX) [11]; 250 g/Ha (*)): 1 (1=0-20%) |
| CCn1c(Cn2ccnn2)cc(=O)c(C(=O)O)c1-c1ccc(Cl)c(Cl)c1 [Compound 45, 2-(3,4-dichlorophenyl)-1-ethyl-4-oxo-6-(triazol-1-ylmethyl)pyridine-3-carboxylic acid] |  | 1 (1=0-20%) |  | 0 | 4 (4=61-80%) |  | 1 (1=0-20%) |  | 0 | 1 (1=0-20%) | 0 | 1 (1=0-20%) |  | 1 (1=0-20%) | 0 | 0 |  | 0 |  |  |  |
| CCn1c(Cn2nccc2C#N)cc(=O)c(C(=O)O)c1-c1ccc(Cl)c(Cl)c1 [Compound 176, 6-[(5-cyanopyrazol-1-yl)methyl]-2-(3,4-dichlorophenyl)-1-ethyl-4-oxo-pyridine-3-carboxylic acid] | 2 (2=21-40%) | 4 (4=61-80%) | 0 | 1 (1=0-20%) | 4 (4=61-80%) | 2 (2=21-40%) | 4 (4=61-80%) | 2 (2=21-40%) | 3 (3=41-60%) | 4 (4=61-80%) | 1 (1=0-20%) | 2 (2=21-40%) | 0 |  | 0 | 0 | 0 | 3 (3=41-60%) | 2 (2=21-40%) | 4 (4=61-80%) | Pre-emergence Test IPOHE, percentage damage caused to the plant (five-point scale) ([7]; 250 g/Ha (*)): 0; Pre-emergence Test AMAPA, percentage damage caused to the plant (five-point scale) ([8]; 250 g/Ha (*)): 1 (1=0-20%); Pre-emergence Test AMARE, percentage damage caused to the plant (five-point scale) ([10]; 250 g/Ha (*)): 0; Pre-emergence Test ZEAMX, percentage damage caused to the plant (five-point scale) (Zea mays (ZEAMX) [11]; 250 g/Ha (*)): 0 |
